pIC50: −log10 of the molar value.
Key:
human CRTH2 [1] = target: T1, human CRTH2 (Homo sapiens, UniProt Q9Y5Y4, V204A); test: Functional antagonist BRET assay on HEK293 cells stably expressing human CRTH2-Rluc and GFP2-β-arr2; assay type: cell-based; parameters: expressed in transfected cells; conditions: read-out: Antag. IC50
T1 sequence (Q9Y5Y4 1-395 V204A): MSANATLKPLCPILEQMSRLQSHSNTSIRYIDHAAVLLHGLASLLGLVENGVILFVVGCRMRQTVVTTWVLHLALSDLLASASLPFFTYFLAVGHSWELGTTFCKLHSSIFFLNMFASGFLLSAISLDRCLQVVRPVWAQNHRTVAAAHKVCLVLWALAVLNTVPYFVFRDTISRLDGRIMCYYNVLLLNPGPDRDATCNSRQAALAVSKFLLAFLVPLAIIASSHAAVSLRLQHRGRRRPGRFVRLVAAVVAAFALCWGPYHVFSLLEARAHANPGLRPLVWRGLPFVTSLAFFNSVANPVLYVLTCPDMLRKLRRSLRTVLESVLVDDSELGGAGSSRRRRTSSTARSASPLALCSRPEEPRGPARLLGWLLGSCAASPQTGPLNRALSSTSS
Outline: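 Cells (2×10^6/mL in D-PBS with glucose) were preincubated 15 min with antagonist at 1% DMSO, then agonist and DeepBlueC were co-injected. Emission at 400 and 515 nm was read 5 s later, and the mBRET ratio (515/400 nm) was used to derive IC50 from concentration–response curves.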

human CRTH2 [2] = target: T1, human CRTH2; test: Receptor binding assay: [3H]PGD2 competition binding on whole COS-7 cells transiently transfected with CRTH2 (also stable HEK293 cells); parameters: expressed in transfected cells; host or cells: COS-7 (transient, calcium phosphate)
Outline: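 Whole COS-7 cells transiently transfected with human CRTH2 (calcium phosphate), or stable HEK293 cells, competed against 0.1 nM [3H]PGD2 in HBSS/10 mM HEPES with 1% DMSO, 3 h at 4 °C. Nonspecific binding with 10 μM PGD2; scintillation counting, duplicates. IC50 from curve fitting.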

[3] = BRET, antagonist incubated 15 minutes prior to agonist
[4] = competition with 0.1 nM [3H]PGD2, whole cells, 3 h at 4° C.
[5] = functional antagonist assay, Table 3
[6] = receptor binding assay, Table 3

pIC50 (human CRTH2 [1]; [3])	pIC50 (human CRTH2 [2]; [4])	pIC50 (human CRTH2 [1]; [5])	pIC50 (human CRTH2 [2]; [6])	Compound
< 5.30	> 6.30	–	–	O=C(O)COc1ccc(Br)cc1C=NNc1cccc2cccnc12 [D150]
> 6.30	> 6.30	–	–	CC(Oc1ccc(Br)cc1C(=O)c1cnn(-c2ccccc2Cl)c1)C(=O)O (centres unmarked) [D38, 2-{4-Bromo-2-[1-(2-chlorophenyl)-1-H-pyrazole-4-carbonyl]phenoxy}propionic acid]
> 6.30	> 6.30	–	–	O=C(O)COc1ccc([N+](=O)[O-])cc1C(=O)c1cnn(-c2ccccc2)c1 [D20, 4-Nitro-2-(1-phenyl-1H-pyrazole-4-carbonyl)phenoxyacetic acid]
> 6.30	> 6.30	–	–	C[C@H](Oc1ccc(Br)cc1C(=O)c1cnn(-c2ccccc2)c1)C(=O)O [(S)-D37, 2(S)-[4-Bromo-2-(1-phenyl-1H-pyrazole-4-carbonyl)-phenoxy]-propionic acid]
> 6.30	> 6.30	–	–	O=C(O)COc1ccc(Br)cc1C(=O)c1cnn(-c2ccc(Br)cc2)c1 [D16, 4-Bromo-2-[1-(4-bromophenyl)-1H-pyrazole-4-carbonyl]phenoxyacetic acid]
5.30 to 6.30	> 6.30	–	–	O=C(O)COc1ccc(Br)cc1CN1CC(=O)N(CCc2ccccc2)C1=O [D140, 4-Bromo-2-(2,4-dioxo-3-phenethylimidazolidin-1-ylmethyl)phenoxyacetic acid]
> 6.30	> 6.30	–	–	O=C(O)COc1ccc(Br)cc1C(=O)c1cnc(-c2ccccc2)s1 [D95, [4-Bromo-2-(2-phenylthiazole-5-carbonyl)phenoxy]acetic acid]
> 6.30	> 6.30	–	–	CC(Oc1ccc(Br)cc1C(=O)c1cnn(-c2cc(Cl)ccc2Cl)c1)C(=O)O (centres unmarked) [D63, 2-{4-Bromo-2-[1-(2,5-dichlorophenyl)-1H-pyrazole-4-carbonyl]phenoxy}propionic acid]
< 5.30	5.30 to 6.30	–	–	COc1ccc(-c2cnnc(NN=Cc3ccccc3OCC(=O)O)n2)cc1 [D153]
–	–	> 6.30	> 6.30	O=C(O)COc1ccc(Br)cc1-c1nc(Cc2cc(F)cc(F)c2)no1 [D117, {4-Bromo-2-[3-(3,5-difluoro-benzyl)-[1,2,4]oxadiazol-5-yl]-phenoxy}-acetic acid]
> 6.30	> 6.30	–	–	CSc1ccccc1-n1cc(C(=O)c2cc(Br)ccc2OCC(=O)O)cn1 [D44, {4-Bromo-2-[1-(2-methylthiophenyl)-1H-pyrazole-4-carbonyl]phenoxy}acetic acid]
< 5.30	< 5.30	–	–	O=C(O)COc1c(Cl)cc(Cl)cc1C(=O)c1cnn(-c2ccccc2)c1 [D13, [2,4-Dichloro-6-(1-phenyl-1H-pyrazole-4-carbonyl)phenoxy]acetic acid]
< 5.30	> 6.30	–	–	O=C(c1cnn(-c2ccccc2)c1)c1cc(Br)ccc1OCc1nn[nH]n1 [D4, [5-Bromo-2-(2H-tetrazol-5-ylmethoxy)phenyl](1-phenyl-1H-pyrazol-4-yl)ketone]
> 6.30	> 6.30	–	–	O=C(O)COc1ccc(Br)cc1CN1CC(=O)N(Cc2ccc(Cl)cc2)C1=O [D139, 4-Bromo-2-[3-(4-chlorobenzyl)-2,4-dioxoimidazolidin-1-ylmethyl]phenoxyacetic acid]
> 6.30	> 6.30	–	–	CC(Oc1ccc(Br)cc1C(=O)c1cnn(-c2ccccc2C(C)C)c1)C(=O)O (centres unmarked) [D79, 2-{4-Bromo-2-[1-(2-isopropylphenyl)-1H-pyrazole-4-carbonyl]phenoxy}propionic acid]
< 5.30	> 6.30	–	–	O=C(O)COc1ccc(Br)cc1-c1noc(-c2ccccc2)n1 [D138, [4-Bromo-2-(5-phenyl-[1,2,4]oxadiazol-3-yl)phenoxy]acetic acid]

pIC50 (human CRTH2 [1]; [3])	pIC50 (human CRTH2 [2]; [4])	pIC50 (human CRTH2 [1]; [5])	pIC50 (human CRTH2 [2]; [6])	Compound
> 6.30	> 6.30	–	–	O=C(O)COc1ccc(Br)cc1C(=O)c1cnn(-c2c(Cl)cccc2Cl)c1 [D29, 4-Bromo-2-[1-(2,6-dichlorophenyl)-1H-pyrazole-4-carbonyl]phenoxyacetic acid]
> 6.30	> 6.30	–	–	COc1ccccc1-n1cc(C(=O)c2cc(Br)ccc2OC(C)C(=O)O)cn1 (centres unmarked) [D65, 2-{4-Bromo-2-[1-(2-methoxyphenyl)-1H-pyrazole-4-carbonyl]phenoxy}propionic acid]
> 6.30	> 6.30	–	–	Cc1cc(Cl)ccc1-n1cc(C(=O)c2cc(Br)ccc2OC(C)C(=O)O)cn1 (centres unmarked) [D62, 2-{4-Bromo-2-[1-(4-chloro-2-methylphenyl)-1H-pyrazole-4-carbonyl]phenoxy}propionic acid]
> 6.30	> 6.30	–	–	CC(C)c1ccccc1-n1cc(C(=O)c2cc(Br)ccc2OCC(=O)O)cn1 [D73, {4-Bromo-2-[1-(2-isopropylphenyl)-1H-pyrazole-4-carbonyl]phenoxy}acetic acid]
–	–	> 6.30	> 6.30	O=C(O)COc1ccc(Br)cc1-c1nc(-c2cccc(C(F)(F)F)c2)no1 [D112, {4-Bromo-2-[3-(3-trifluoromethylphenyl)-[1,2,4]oxadiazol-5-yl]phenoxy}-acetic acid]
> 6.30	> 6.30	–	–	CCc1cc(Br)ccc1-n1cc(C(=O)c2cc(Br)ccc2OC(C)C(=O)O)cn1 (centres unmarked) [D46, 2-{4-Bromo-2-[1-(4-bromo-2-ethylphenyl)-1H-pyrazole-4-carbonyl]phenoxy}propionic acid]
> 6.30	> 6.30	–	–	O=C(O)COc1ccc(Br)cc1-c1coc(Cc2c(Cl)cccc2Cl)n1 [D91, {4-Bromo-2-[2-(2,6-dichlorobenzyl)oxazol-4-yl]phenoxy}acetic acid]
> 6.30	> 6.30	–	–	COc1ccc(-n2cc(C(=O)c3cc(Br)ccc3OCC(=O)O)cn2)cc1 [D7, 4-Bromo-2-[1-(4-methoxyphenyl)-1H-pyrazole-4-carbonyl]phenoxyacetic acid]
> 6.30	> 6.30	–	–	Cc1ccc(CN2C(=O)SC(Cc3cc(Br)ccc3OCC(=O)O)C2=O)cc1 (centres unmarked) [D142, 4-Bromo-2-[3-(4-methylbenzyl)-2,4-dioxothiazolidin-5-ylmethyl]phenoxyacetic acid]
> 6.30	> 6.30	–	–	CC(Oc1ccc(Br)cc1C(=O)c1cnn(-c2ccccc2Oc2ccccc2)c1)C(=O)O (centres unmarked) [D47, 2-{4-Bromo-2-[1-(2-phenoxyphenyl)-1H-pyrazole-4-carbonyl]phenoxy}propionic acid]
> 6.30	> 6.30	–	–	O=C(O)COc1ccc(Br)cc1C(=O)c1cnn(-c2c(Cl)cc(Cl)cc2Cl)c1 [D35, 4-Bromo-2-[1-(2,4,6-trichlorophenyl)-1H-pyrazole-4-carbonyl]phenoxyacetic acid]
–	–	> 6.30	> 6.30	O=C(O)COc1ccc(Br)cc1-c1nc(Cc2ccc(Cl)cc2Cl)no1 [D122, {4-Bromo-2-[3-(2,4-dichloro-benzyl)-[1,2,4]oxadiazol-5-yl]-phenoxy}-acetic acid]
–	–	> 6.30	> 6.30	COc1cccc(-c2noc(-c3cc(Br)ccc3OCC(=O)O)n2)c1 [D104, {4-Bromo-2-[3-(3-methoxyphenyl)-[1,2,4]oxadiazol-5-yl]phenoxy}acetic acid]
5.30 to 6.30	> 6.30	–	–	O=C(O)COc1ccccc1C=NNC(=O)CSc1nnc(-c2ccc(Cl)cc2)n1-c1ccccc1 [D156]
> 6.30	> 6.30	–	–	CCc1ccc(OCC(=O)O)c(C(=O)c2cnn(-c3c(Cl)cccc3Cl)c2)c1 [D53, {2-[1-(2,6-Dichlorophenyl)-1H-pyrazole-4-carbonyl]-4-ethylphenoxy}acetic acid]

— US20110269763A1, “CRTH2 receptor ligands for medicinal uses” (7TM Pharma A/S, priority 2004, published 2011)
